Test results reported in patent publication US8168596B2, “Use of cycloartane compounds for treating arthritis” (NuLiv Holding Inc., priority 2008, dated 2012).

Columns and labels:
[1] = test system: MMP-1; assay: Western blot of MMP-1 in PMA- or IL-1β-pre-treated SW1353 cells (Example 6); format: cell-based, human; settings: 48 h
Method: (§1) The cells were then plated on 6-cm dishes at a density of 1×10^6 cells/dish for 24 hours prior to any treatment. At the beginning of the experiment, the cells were pre-treated with 100 ng/mL PMA or 10 ng/mL IL-1β for 24 hours. The cells were then treated 0.1 μM Dexamethasone with, various astragaloside compounds (0.1 μM) or extracts of Astragalus membranaceous (1 μg/mL) at indicated dosages for another 48 hours. For control sample, 0.1% DMSO was used as a negative control for these experiments. The conditioned culture mediums were then centrifuged, 2-fold concentrated and collected for assay of collagens or MMPs secreted into the culture medium.
(§2) Western blotting analysis was carried out on both cultured medium and cell lysates, as follows. The cells were washed and lysed in 0.2 mL of lysis buffer (1% NP-40, 50 mM Tris-HCl, pH 7.4, 180 mM NaCl, 1 mM EDTA, 1 mM PMSF, 1 mM NaF, 10 mM Na3VO4) for 30 min at 4° C. After centrifuging at 17500 g for 15 min, the supernatants of cell lysate were also collected. Protein concentration of the samples were measured using the bicinchoninic acid (BCA) protein assay kit according to the manufacturer's protocol (Pierce, Rockford, Ill., USA). Equal amount of protein samples of concentrated conditioned medium (100 μg) or cell lysate supernatants (50 μg) were mixed with an appropriate volume of 4×SDS sampling buffer and separated by 8% SDS-PAGE gel. The protein bands separated in the SDS-PAGE gel were blotted onto a polyvinylidene fluoride (PVDF) membrane. The blotted PVDF membrane was washed twice and blocked in freshly prepared Tris-buffered saline (TBS) containing 0.1% Tween-20 and 7% skim milk (TBST) for 2 hours at room temperature. The PVDF membrane was then incubated with either antibodies against collagen I and III or the housekeeping protein α-tubulin (Santa Cruz Biotechnology, Santa Cruz, Calif.) for 18 hours at 4° C. Horseradish peroxidase-conjugated anti-goat antibody was used as secondary antibody. Signals were visualized by an enhanced chemiluminescence kit (Clonetech, Palo Alto, Calif., USA) followed by exposure to X-ray films.

[2] = test system: MMP-13; assay: Western blot of MMP-13 in PMA- or IL-1β-pre-treated SW1353 cells (Example 6); format: cell-based, human; settings: 0.1 μM, 48 h
Method: as §1
as §2, with “The PVDF membrane was then incubated with either antibodies against collagen I and III or the housekeeping protein α-tubulin (Santa Cruz Biotechnology, Santa Cruz, Calif.) for 18 hours at 4° C.” left out

[3] = test system: MMP-1; assay: Zymography of MMP-1 from pre-treated SW1353 cells; format: cell-based, human; settings: 0.1 μM, 24 h
Method: (§3) At the beginning of the experiment, the cells were pre-treated with 100 ng/mL PMA or 10 ng/mL IL-1β for 24 hours. The cells were then treated with 0.1 μM Dexamethasone, various astragaloside compounds (0.1 μM) or extracts of Astragalus membranaceous (1 μg/mL) at indicated dosages for another 24 hours. For control sample, 0.1% DMSO was used as a negative control for these experiments. The conditioned culture mediums were then centrifuged, 2-fold concentrated and collected for assay of collagens or MMPs secreted into the culture medium.
(§4) The proteolytic activities of MMPs from SW1353 cells were measured essentially as described previously (Circ Res, 1999; 85:906-911). The cells were lysed in lysis buffer (1% Triton X-100, 50 mM Tris-Cl, pH 7.4, 180 mM NaCl, 1 mM EDTA). The samples were measured for their protein concentration using the bicinchoninic acid (BCA) protein assay kit as described. Samples of concentrated conditioned medium and cell lysates were mixed with non-reducing electrophoresis loading buffer and subjected to electrophoresis under non-reducing conditions. The electrophoresis was carried out on a 10% SDS-PAGE co-polymerized with 2 mg/mL gelatin or casein (Sigma, St. Louis, Mo. USA). For zymographic analysis of pro-MMP-2 and activated MMP-2, the total 20 μg of culture medium were used for electrophoresis. Following electrophoresis, renaturation of the proteins was achieved by incubating the gels twice in 25 g/L Triton X-100 at room temperature for 10 min. Subsequently the gels were incubated in 50 mM Tris-HCl, pH 7.5 containing 0.2 M NaCl, 0.02% Brij35 and 10 mM CaCl2 at 37° C. for 18 hours. After the gels were stained with Coomassie Brilliant Blue R-250 and destained, zones of proteolytic activities became visible as transparent bands in the stained gel. In order to obtain higher sensitivity, the gels were further destained in a solution of 1% Triton X-100 (1 to 2 hours). This procedure increased the signal-to-noise ratio, allowing the visualization of faint gelatinase bands at 92 kDa, 125 kDa and greater than 200 kDa. Zymograms were read using a Molecular Dynamics (Sunnyvale, Calif., USA) computing laser densitometer with Image Quant software.

[4] = test system: MMP-2; assay: Zymography of MMP-2 from pre-treated SW1353 cells; format: cell-based, human; settings: 24 h
Method: as §3, §4

[5] = test system: MMP-9; assay: Zymography of MMP-9 from pre-treated SW1353 cells; format: cell-based, human; settings: 24 h
Method: as §3, §4

[6] = test system: MMP-13; assay: Western blot of MMP-13 in pre-treated human chondrocytes (HCHs); format: cell-based; settings: 48 h
[7] = test system: Type II Collagen; assay: Western blot of Type II Collagen in pre-treated human chondrocytes (HCHs); format: cell-based; settings: 48 h
[8] = test system: MMP-1; assay: Western blot of MMP-1 in pre-treated human chondrocytes (HCHs); format: cell-based; settings: 48 h
[9] = test system: HCH cells; assay: Proline uptake assay; format: cell-based, human; settings: astragalosides 0.1 μM, 24 h, Ctrl 1.00
Method: The proline uptake assay was carried out as described below, generally in accordance with the method disclosed in Biochim Biophys Acta. 1104:283-292, 1992, the contents of which are incorporated by reference. Briefly, HCH cells were seeded into a 24-well plate at a density of 3×10^4 cells per well and cultured for 24 hours. The cells were then treated in the absence (solvent control) or presence of the astragalosides (0.1 μM) or Astragalus membranaceous extracts (1.0 μg/mL) for another 24 hours. The treated cells were then washed once with PBS and incubated in amino acid free medium (AAFM) for another 30 min. The treated cells were then replaced with fresh AAFM containing 50 μg/mL of ascorbate and total of 0.5 mM of L-proline containing 1 μCi [^3H] Proline (American Radiolabelled Chemicals Inc, ARC, St. Louis, Mo., USA). At designated time intervals, the cells were washed with AAFM containing cold proline and then lysed in 200 μL of 2% SDS. Cell lysates were centrifuged at 15000 g for 15 min. Intracellular proline uptaken by the cells was determined by transferring 10 μL of the cell lysate to filter-bottomed UniFilter plates (Perkim-Elmer) and counting. The samples were measured for their protein concentrations using the BCA protein assay kit as described above. The amount of proline accumulated in the cells was calculated and normalized to protein concentration. And cellular uptake rate was expressed as nmole of L-proline per minute per […] of cell protein (nmole/min/μg).

[10] = IL-1β-pre-treated SW1353 cell extract, compounds 0.1 μM
[11] = PMA-pre-treated SW1353 cell extract, 0.1 μM
[12] = IL-1β-pre-treated SW1353 cell extract
[13] = IL-1β-pre-treated SW1353 culture medium
[14] = IL-1β-pre-treated SW1353, compounds 0.1 μM
[15] = IL-1β-pre-treated SW1353 culture medium, 0.1 μM
[16] = IL-1β-pre-treated HCH culture medium, compounds 0.1 μM
[17] = PMA-pre-treated SW1353 culture medium, 0.1 μM
[18] = PMA-pre-treated SW1353 culture medium
[19] = PMA-pre-treated HCH culture medium, 0.1 μM

Compound	MMP-1, Western blot, relative to Ctrl 1.00 [1, 10]	MMP-1, Western blot, relative to Ctrl 1.00 [1, 11]	MMP-13, Western blot, relative to Ctrl 1.00 [2, 12]	MMP-13, Western blot, relative to Ctrl 1.00 [2, 13]	MMP-1, Zymography, relative to Ctrl 1.00 ([3]; IL-1β-pre-treated SW1353)	MMP-2, Zymography, relative to Ctrl 1.00 [4, 14]	MMP-9, Zymography, relative to Ctrl 1.00 [5, 14]	MMP-1, Western blot, relative to Ctrl 1.00 [1, 15]	MMP-1, Zymography, relative to Ctrl 1.00 ([3]; PMA-pre-treated SW1353)	MMP-2, Zymography, relative to Ctrl 1.00 ([4]; PMA-pre-treated SW1353, 0.1 μM)	MMP-9, Zymography, relative to Ctrl 1.00 ([5]; PMA-pre-treated SW1353, 0.1 μM)	MMP-13, Western blot, relative to Ctrl 1.00 [6, 16]	Type II Collagen, Western blot, relative to Ctrl 1.00 [7, 16]	MMP-1, Western blot, relative to Ctrl 1.00 [1, 17]	MMP-13, Western blot, relative to Ctrl 1.00 [2, 18]	MMP-1, Western blot, relative to Ctrl 1.00 [8, 16]	MMP-1, Western blot, relative to Ctrl 1.00 [8, 19]	MMP-13, Western blot, relative to Ctrl 1.00 [6, 19]	Type II Collagen, Western blot, relative to Ctrl 1.00 [7, 19]	further results
CC(=O)O[C@H]1[C@H](O[C@H]2CC[C@]34C[C@]35CC[C@]3(C)[C@@H]([C@@]6(C)CC[C@@H](C(C)(C)O)O6)[C@@H](O)C[C@@]3(C)[C@@H]5C[C@H](O[C@@H]3O[C@H](CO)[C@@H](O)[C@H](O)[C@H]3O)[C@H]4C2(C)C)OC[C@@H](O)[C@@H]1O [AS2, Astragaloside II]	0.86	0.71	0.49	0.45	0.77	0.79	0.79	–	–	–	–	–	–	–	–	–	–	–	–	–
CC(C)(O)[C@@H]1CC[C@](C)([C@H]2[C@@H](O)C[C@@]3(C)[C@@H]4C[C@H](O)[C@H]5C(C)(C)[C@@H](O[C@@H]6OC[C@@H](O)[C@H](O)[C@H]6O[C@@H]6O[C@H](CO)[C@@H](O)[C@H](O)[C@H]6O)CC[C@@]56C[C@@]46CC[C@]23C)O1 [AS3, Astragaloside III]	0.39	–	0.86	–	–	–	–	0.09	0.89	0.90	0.87	0.75	1.03	–	–	–	–	–	–	–
CC(C)(O)[C@@H]1CC[C@](C)([C@H]2[C@@H](O)C[C@@]3(C)[C@@H]4C[C@H](O[C@@H]5O[C@H](CO)[C@@H](O)[C@H](O)[C@H]5O)[C@H]5C(C)(C)[C@@H](O[C@@H]6OC[C@@H](O)[C@H](O)[C@H]6O[C@@H]6O[C@H](CO)[C@@H](O)[C@H](O)[C@H]6O)CC[C@@]56C[C@@]46CC[C@]23C)O1 [AS6, Astragaloside VI]	0.63	–	–	–	–	–	–	–	–	–	–	–	1.34	0.40	0.93	0.97	0.51	0.26	1.74	MMP-13, Western blot, relative to Ctrl 1.00 ([6]; PMA-pre-treated HCH cell extract, 0.1 μM): 0.54; proline uptake, Relative fold [9]: 1.69 fold
C[C@@H]1C[C@H]2[C@@H]3CCC4=CC(=O)C=C[C@]4(C)[C@@]3(F)[C@@H](O)C[C@]2(C)[C@@]1(O)C(=O)CO [Dex, Dexamethasone, reference compound]	0.26	0.38	0.64	0.29	0.80	0.42	0.58	0.38	0.87	0.99	0.92	0.74	1.20	0.60	0.46	0.28	0.28	0.74	1.20	MMP-13, Western blot, relative to Ctrl 1.00 ([2]; PMA-pre-treated SW1353 cell extract): 0.48
Astragaloside I [AS1]	0.66	0.86	0.37	–	0.86	0.76	0.79	–	0.85	0.87	1.23	–	–	0.48	1.15	–	–	–	–	–
